The values below come from US20060269482A1 (priority 2005, published 2006).

Assay [1] has as its system Rb phosphorylation in rat PBMCs. Briefly: Rb phosphorylation in ex vivo PMA-stimulated rat PBMCs after a single oral dose. The conditions noted are these: single oral dose 80 mg/kg. The method, then: The dose selected was 80 mg/kg, determined to be an efficacious dose in this animal model. Tumor growth inhibition in the MTLn3 xenograft model after 2 to 3 weeks of oral dosing at 80 mg/kg once weekly averaged 90% with 2/10 complete regressions. COMPOUND A was dosed on day 10 post implantation of cells, at which time the tumors were 100-200 mm^3 in size. In this pharmacokinetic/pharmacodynamic experiment, plasma and tumors were collected at 1, 2, 6, 24 and 72 hours post dosing of a single oral dose of COMPOUND A. Tumors were removed and immediately snap frozen in liquid nitrogen and stored at −80° C. until drug concentration analysis. […] Concentrations of COMPOUND A in plasma and tumors were determined in the same three animals per time point. […] Peripheral blood mononuclear cells (PBMCs) were isolated, stimulated ex vivo with mitogen and analyzed by Western blot as described below. […]
(§1) PBMCs were collected by transferring the cells, including attached cells and those in suspension, into 50 ml tubes. […] Samples were sonicated on ice for 30 seconds, clarified by centrifugation at 16,000×g for 10 minutes at 4° C. and protein concentrations determined using Non-Interfering Protein Assay Kit (Geno Technology Incorporated, Maplewood, Mo.). […] For Western blotting, total Rb was detected using antibody from Pharmingen (BD Bioscience, San Diego, Calif.) at a dilution of 1:2000. […]

The subject of assay [2] is Rb phosphorylation in human PBMCs. Briefly: Rb phosphorylation in human PBMCs treated ex vivo. The settings on record: PMA stimulated, 0.2 to 2.0 μM, Western blot. Type of assay: cell-based. As for the experimental part:
Approximately 10 mls of blood was collected from five healthy human volunteers into sodium heparin treated Vacutainer blood collection tubes by Employee Health Services. PBMCs were separated using the Lymphocyte Separation Medium (LSM) and protocol supplied by ICN Biomedicals Inc. (Costa Mesa, Calif.). Briefly whole blood was diluted 1:1 with cold HBSS (Hanks Balanced Salt Solution), layered onto the LSM and centrifuged. The band of mononuclear cells above the LSM was collected, transferred to a new tube and washed once with cold HBSS. Cells were resuspended in RPMI 1640, 10% HI-FBS, 2 mM L-glutamine and 0.01 mg/ml Gentamicin Reagent Solution (GIBCO/Invitrogen). […]
as §1, with “1:2000. Lysates were analysed by Western blotting for Rb phosphorylation using polyclonal antibodies against phosphorylated serine 795, serine 780, threonine 821 and serine 807/811 in human Rb (FIG. 8).” for “1:2000.”

For the compound `COc1ccc(F)c(F)c1C(=O)c1cnc(NC2CCN(S(C)(=O)=O)CC2)nc1N` [COMPOUND A, [4-amino-2-(1-methanesulfonylpiperidin-4-ylamino)pyrimidin-5-yl]-(2,3-difluoro-6-methoxyphenyl)methanone], the “Total Rb levels in PBMCs” value in assay [1] (female Fischer rats) is listed as “did not appear to decrease”. Besides, in assay [1] (female Fischer rats, 2, 6 and up to 24 hours post treatment, Western blot), the “Rb phosphorylation (serine 795) in ex vivo stimulated PBMCs” value was “decrease in Rb phosphorylation”. Besides, the “Rb phosphorylation at the serine 807/811 site” value in assay [2] (human PBMCs of two donors) is “complete inhibition of phosphorylation”. For the same compound, the “Rb phosphorylation at the threonine 821 site” value in assay [2] (human PBMCs, 24 hours incubation) is “not inhibited at any concentration”.
